Source: patent publication US20080287323A1, “Treatment and Reuse of Oilfield Produced Water” (priority 2007, published 2008)

Tested on: bacteria and/or enzymes in the produced water
Assay: Fann 50 viscosity test of guar or CMHPG gels prepared from pretreated oilfield produced water
Conditions: similar borate-crosslinked guar gels versus "as is" produced water
Method: Example of produced water treated with zirconyl chloride: Produced water PW4 was treated with 0.36 mL/L of zirconyl chloride solution M14. The mixture was stirred and then let stand for 30 minutes or more. Gels comprising borate-crosslinked guar were prepared with 8.8 mL/L M1, 6.0 mL/L M10, and 2.5 mL/L M11, in both the untreated and the M14-treated PW4 produced water. The viscosities of the fluids were tested with a Fann 50 viscometer.
Example of produced water treated with zirconium tetrachloride (ZTC): Produced water PW5-1 was treated with 1 mL/L of an aqueous solution of ZTC (containing an equivalent of 7.0 wt % ZrO2), stirred and then let stand for 1 day. Gels comprising borate-crosslinked guar were prepared with 8.8 mL/L M1, 6.0 mL/L M10 and 2.5 mL/L M11, using the treated (ES5) and untreated water (PW5-1, as is), and the viscosity of the fluids was tested with a Fann 50 viscometer at 93° C.
Examples of produced water treated with other inorganic heavy metal ions: Gels of borate-crosslinked guar were prepared from 8.8 mL/L M1, 6.0 mL/L M10 and 2.5 mL/L M11, added to two samples of BaCl2-treated PW6-1 produced water—0.28 g/L BaCl2 in ES6 and 3.4 g/L BaCl2 in ES7, followed by individual stirring for 30 minutes. […]

**Q.** `[Cl][Cu][Cl]` [CuCl2] was tested. Which “effect of produced water treatment on gel viscosity (in words)” value did it give?
**A.** The value was “did not obviously improve the viscosity”.
